Measurements reported in ChEMBL document CHEMBL4411344, “Synthesis and biological evaluation of new long-chain squaramides as anti-chagasic agents in the BALB/c mouse model” (Bioorg Med Chem, 2019).
The source made the active and inactive calls. The calls are words filed in the database; no cut-off is given here.

Columns and labels:
Trypanosoma cruzi [1] = assay: Antitrypanosomal activity against Trypanosoma cruzi MHOM/Pe/2011/Arequipa DTU 5 trypomastigotes infected in Balb/c mouse assessed as reduction in Ig-G level in serum at 20 mg/kg, po once daily for 5 consecutive days starting from day 75 post infection measured on day 81 post infection by ELISA; assay type: functional, organism-based
[2] = Selectivity index, ratio of IC50 for African green monkey Vero cells to IC50 for Trypanosoma cruzi IRHOD/CO/2008/SN3 DTU 1 trypomastigotes derived from infected Balb/c mouse; assay type: toxicity; details: read-out: Ratio IC50
[3] = Nephrotoxicity in Balb/c mouse infected with Trypanosoma cruzi MHOM/Pe/2011/Arequipa DTU 5 trypomastigotes assessed as decrease in serum urea level at 20 mg/kg, po once daily for 5 consecutive days starting from day 75 post infection measured on day 81 post infection relative to control; assay type: toxicity, organism-based; details: in vivo
Trypanosoma cruzi [4] = assay: Trypanocidal activity against Trypanosoma cruzi MHOM/Pe/2011/Arequipa DTU 5 amastigotes infected in African green monkey Vero cells assessed as reduction in infected cells after 72 hrs by Giemsa-staining based assay; assay type: functional, organism-based; details: MHOM/Pe/2011/Arequipa DTU 5, Vero
[5] = Nephrotoxicity in Balb/c mouse infected with Trypanosoma cruzi MHOM/Pe/2011/Arequipa DTU 5 trypomastigotes assessed as decrease in serum urea level at 20 mg/kg, po once daily for 5 consecutive days starting from day 10 post infection measured on day 127 post infection relative to control; assay type: toxicity, organism-based; details: in vivo
Trypanosoma cruzi [6] = assay: Antitrypanosomal activity against Trypanosoma cruzi MHOM/Pe/2011/Arequipa DTU 5 epimastigotes assessed as effect on parasite glycolytic pathway by measuring increase in succinate excretion at IC25 after 72 hrs by 1H NMR method; assay type: functional, organism-based
[7] = Selectivity index, ratio of IC50 for African green monkey Vero cells to IC50 for Trypanosoma cruzi IRHOD/CO/2008/SN3 DTU 1 amastigotes infected in African green monkey Vero cells; assay type: toxicity; details: read-out: Ratio IC50
Trypanosoma cruzi [8] = assay: (§1) Antitrypanosomal activity against Trypanosoma cruzi MHOM/Pe/2011/Arequipa DTU 5 trypomastigotes infected in Balb/c mouse assessed as parasite-free heart at 20 mg/kg, po pretreated once daily for 5 consecutive days starting from day 10 post infection followed by cyclophosphamide-induced immunosuppression on day 100 post infection measured on day 127 post infection by PCR method; assay type: functional
Trypanosoma cruzi [9] = assay: Trypanocidal activity against Trypanosoma cruzi TINF/CH/1956/Tulahuen DTU 6 epimastigotes after 72 hrs by resazurin dye based assay; assay type: functional, organism-based; details: TINF/CH/1956/Tulahuen DTU 6, 72 h
Trypanosoma cruzi [10] = assay: Antitrypanosomal activity against Trypanosoma cruzi MHOM/Pe/2011/Arequipa DTU 5 epimastigotes assessed as effect on parasite glycolytic pathway by measuring increase in glycerol excretion at IC25 after 72 hrs by 1H NMR method; assay type: functional
[11] = Selectivity index, ratio of IC50 for African green monkey Vero cells to IC50 for Trypanosoma cruzi IRHOD/CO/2008/SN3 DTU 1 epimastigotes; assay type: toxicity; details: read-out: Ratio IC50
Trypanosoma cruzi [12] = assay: as §1, with “as parasite-free oesophagus at 20” for “as parasite-free heart at 20”, “from day 75 post infection” for “from day 10 post infection”; assay type: functional
Trypanosoma cruzi [13] = assay: Antitrypanosomal activity against Trypanosoma cruzi MHOM/Pe/2011/Arequipa DTU 5 epimastigotes assessed as reduction in DNA and RNA levels at IC25 after 72 hrs by acridine orange staining based flow cytometry relative to control; assay type: functional
[14] = target: Superoxide dismutase [Cu-Zn] (Homo sapiens, UniProt P00441); assay: Inhibition of human erythrocyte CuZn-SOD by UV-Visible spectrophotometric method
Trypanosoma cruzi [15] = assay: as §1, with “as parasite-free spleen at 20” for “as parasite-free heart at 20”, “from day 75 post infection” for “from day 10 post infection”; assay type: functional
Trypanosoma cruzi [16] = assay: as §1, with “reduction in Ig-G level in serum” for “parasite-free heart”, “ELISA” for “PCR method”; assay type: functional, organism-based
Trypanosoma cruzi [17] = assay: Antitrypanosomal activity against Trypanosoma cruzi MHOM/Pe/2011/Arequipa DTU 5 trypomastigotes infected in Balb/c mouse assessed as reduction in Ig-G level in serum at 20 mg/kg, po once daily for 5 consecutive days starting from day 10 post infection measured on day 100 post infection by ELISA; assay type: functional, organism-based
[18] = Toxicity in Balb/c mouse assessed as reduction in body mass at 20 mg/kg, po once daily for 5 consecutive days starting from day 75 post infection relative to control; assay type: organism-based; parameters: scale not given: the % may be the effect or the level left; details: in vivo
Trypanosoma cruzi [19] = assay: Trypanocidal activity against Trypanosoma cruzi MHOM/Pe/2011/Arequipa DTU 5 epimastigotes after 72 hrs by resazurin dye based assay; assay type: functional, organism-based; details: MHOM/Pe/2011/Arequipa DTU 5, 72 h
Trypanosoma cruzi [20] = assay: Trypanocidal activity against Trypanosoma cruzi TINF/CH/1956/Tulahuen DTU 6 trypomastigotes derived from infected Balb/c mouse after 72 hrs by resazurin dye based assay; assay type: functional, organism-based; details: TINF/CH/1956/Tulahuen DTU 6, 72 h
[21] = Toxicity in Balb/c mouse assessed as death at 20 mg/kg, po once daily for 5 consecutive days starting from day 10 post infection; assay type: organism-based; details: in vivo
[22] = Toxicity in Balb/c mouse assessed as death at 20 mg/kg, po once daily for 5 consecutive days starting from day 75 post infection; assay type: organism-based; details: in vivo
Trypanosoma cruzi [23] = assay: as §1, with “as parasite-free stomach at 20” for “as parasite-free heart at 20”, “from day 75 post infection” for “from day 10 post infection”; assay type: functional
[24] = Selectivity index, ratio of IC50 for African green monkey Vero cells to IC50 for Trypanosoma cruzi TINF/CH/1956/Tulahuen DTU 6 amastigotes infected in African green monkey Vero cells; assay type: toxicity; details: read-out: Ratio IC50
Trypanosoma cruzi [25] = assay: as §1, with “bone marrow” for “heart”; assay type: functional
Trypanosoma cruzi [26] = assay: Trypanocidal activity against Trypanosoma cruzi IRHOD/CO/2008/SN3 DTU 1 amastigotes infected in African green monkey Vero cells after 72 hrs by Giemsa-staining based microscopic assay; assay type: functional, organism-based; details: IRHOD/CO/2008/SN3 DTU 1, Vero
Vero = assay: Cytotoxicity against African green monkey Vero cells assessed as reduction in cell viability after 72 hrs by resazurin dye based assay; details: Chlorocebus sabaeus
[27] = Inhibition of Trypanosoma cruzi MHOM/Pe/2011/Arequipa DTU 5 epimastigotes Fe-SOD by UV-Visible spectrophotometric method
Trypanosoma cruzi [28] = assay: as §1, with “as parasite-free bone marrow at 20” for “as parasite-free heart at 20”, “from day 75 post infection” for “from day 10 post infection”; assay type: functional
[29] = Selectivity index, ratio of IC50 for African green monkey Vero cells to IC50 for Trypanosoma cruzi TINF/CH/1956/Tulahuen DTU 6 trypomastigotes derived from infected Balb/c mouse; assay type: toxicity; details: read-out: Ratio IC50
[30] = Hepatotoxicity in Balb/c mouse infected with Trypanosoma cruzi MHOM/Pe/2011/Arequipa DTU 5 trypomastigotes assessed as increase in alkaline phosphatase level at 20 mg/kg, po once daily for 5 consecutive days starting from day 10 post infection measured on day 16 post infection relative to control; assay type: toxicity, organism-based; details: in vivo

Superoxide dismutase [Cu-Zn], sequence (P00441 whole entry): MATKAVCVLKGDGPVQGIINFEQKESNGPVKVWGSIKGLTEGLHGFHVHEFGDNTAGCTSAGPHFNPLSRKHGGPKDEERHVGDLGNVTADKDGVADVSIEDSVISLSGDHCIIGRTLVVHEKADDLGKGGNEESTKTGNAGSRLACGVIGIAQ

Compound | Activity (Trypanosoma cruzi [1]) | selectivity ratio [2] | Activity [3] [mg/dL] | IC50 (Trypanosoma cruzi [4]) [µM] | Activity [5] [mg/dL] | Activity (Trypanosoma cruzi [6]) | selectivity ratio [7] | Activity (Trypanosoma cruzi [8]) | IC50 (Trypanosoma cruzi [9]) [µM] | Activity (Trypanosoma cruzi [12]) | inhibition (INH) (Trypanosoma cruzi [13]) [%] | Activity (Trypanosoma cruzi [15]) | Activity (Trypanosoma cruzi [16]) | Activity (Trypanosoma cruzi [17]) | Activity [18] [%] | Activity [21] | Activity [22] | Activity (Trypanosoma cruzi [23]) | Activity (Trypanosoma cruzi [25]) | Activity (Trypanosoma cruzi [28]) | further results
CCCCCCCCCCCCCCCCNc1c(N(C)CCCN(C)C)c(=O)c1=O | inactive | 126 | 10 to 20 | 5.6 | 10 to 20 | Active | 35.9 | 67% | 9.5 | 78% | 49.05 | 78% | Active | Active | > 10 | Non-Toxic | Non-Toxic | 78% | 67% | 78% | Activity (Trypanosoma cruzi [10]): 43%; selectivity ratio [11]: 42.5; IC50 [14]: > 100 µM; IC50 (Trypanosoma cruzi [19]): 7.3 µM; IC50 (Trypanosoma cruzi [20]): 4.7 µM; selectivity ratio [24]: 106; IC50 (Trypanosoma cruzi [26]): 18.9 µM; IC50 (Vero): 679 µM; IC50 [27]: 69.8 µM; selectivity ratio [29]: 144
CCCCCCNc1c(N(C)CCCN(C)C)c(=O)c1=O | inactive | 57 | 10 to 20 | 60.5 | 10 to 20 | Active | 18 | inactive | 14.7 | inactive | 31.13 | inactive | inactive | inactive | > 10 | Non-Toxic | Non-Toxic | inactive | inactive | inactive | Activity (Trypanosoma cruzi [10]): Active; selectivity ratio [11]: 63; IC50 [14]: > 100 µM; Activity [30]: 10 to 20 U/L; IC50 (Trypanosoma cruzi [19]): 20.3 µM; IC50 (Trypanosoma cruzi [20]): 17.2 µM; selectivity ratio [24]: 23.5; IC50 (Trypanosoma cruzi [26]): 50 µM; IC50 (Vero): 900 µM; IC50 [27]: 25.3 µM; selectivity ratio [29]: 52.2
O=C(Cn1ccnc1[N+](=O)[O-])NCc1ccccc1 [BENZNIDAZOLE] | inactive | – | 20 to 30 | – | 20 to 30 | – | – | 33% | – | 55% | 22.38 | 55% | Active | Active | > 10 | Non-Toxic | Non-Toxic | 55% | 33% | 55% | Activity [30]: 20 to 30 U/L
